Columns and labels:
Opioid receptor [1] = target: T1, Opioid receptor (Rattus norvegicus, UniProt P33533+P34975+P33535); experiment: In vitro opioid receptor binding competition against 1 nM [3H]- Naltrexone in the presence of 100 mM NaCl.; format: protein assay
Opioid receptor [2] = target: T1, Opioid receptor; experiment: In vitro opioid receptor binding competition against 1 nM [3H]- Naltrexone in the absence of NaCl.; format: protein assay
[3] = target: Opioid receptor (Rattus norvegicus) (UniProt P33533+P34975+P33535); experiment: Ratio of IC50 value in presence of NaCl to that of NaCl absence against opioid receptor.; format: protein assay
[4] = Activity against specific binding of [3H]naltrxone at dose 200 nM & at 25 degree C in the presence of Na+ ion (washed)
[5] = Activity against specific binding of [3H]naltrxone at dose 75 nM & at 37 degree C in the absence of Na+ ion (unwashed )
[6] = Activity against specific binding of [3H]naltrxone at dose 500 nM & at 37 degree C in the presence of Na+ ion(washed)
[7] = Activity against specific binding of [3H]naltrxone at dose 200 nM & at 25 degree C in the absence of Na+ ion (washed)
[8] = Activity against specific binding of [3H]naltrxone at dose 75 nM & at 37 degree C in the absence of Na+ ion (washed)
[9] = Activity against specific binding of [3H]-naltrxone at dose 200 nM & at 25 degree C in the presence of Na+ ion (unwashed )
[10] = Activity against specific binding of [3H]naltrxone at dose 500 nM & at 37 degree C in the presence of Na+ ion (unwashed )
[11] = Activity against specific binding of [3H]naltrxone at dose 200 nM & at 25 degree C in the absence of Na+ ion (unwashed )

Row | SMILES | IC50 (Opioid receptor [1]) [nM] | IC50 (Opioid receptor [2]) [nM] | Ratio [3] | also measured
1 | CCOC(=O)[C@H]1OC12CCC1(O)[C@H]3Cc4ccc(O)c5c4[C@@]1(CCN3CC1CC1)C2O5 (stereo partly specified) | 3.5 | 2.3 | 1.5 | –
2 | C=C1CC2(CCC3(O)[C@H]4Cc5ccc(O)c6c5[C@@]3(CCN4CC3CC3)C2O6)OC1=O (stereo in doubt; 5a) [listing 1 of 2 here] | 2 | 5 | – | –
3 | C=C1C(=O)OC2C1CC1(O)[C@H]3Cc4ccc(O)c5c4[C@@]1(CCN3CC1CC1)C2O5 (stereo partly specified) | 7 | 10 | 0.7 | –
4 | C=C1C(=O)OC2=C1CC1(O)[C@H]3Cc4ccc(O)c5c4[C@@]1(CCN3CC1CC1)C2O5 (stereo partly specified) | 50 | 100 | 0.5 | –
5 | C=C1CC2(CCC3(O)[C@H]4Cc5ccc(O)c6c5[C@@]3(CCN4CC3CC3)C2O6)OC1=O (stereo in doubt; 6a) [listing 1 of 2 here] | 15 | 12.5 | – | –
6 | CCOC(=O)[C@H]1OC12CCC1(O)C3Cc4ccc(O)c5c4[C@@]1(CCN3C)C2O5 (stereo partly specified) | 1000 | 70 | 14.2 | –
7 | Oc1ccc2c3c1OC1C4(CCC5(O)[C@@H](C2)N(CC2CC2)CC[C@]315)CO4 (stereo in doubt; 12a) [listing 1 of 2 here] | 2 | 4 | – | –
8 | Oc1ccc2c3c1OC1C4(CCC5(O)[C@@H](C2)N(CC2CC2)CC[C@]315)CO4 (stereo in doubt; 12a) [listing 2 of 2 here] | – | – | 0.5 | –
9 | CC1CC2(CCC3(O)C4Cc5ccc(O)c6c5[C@@]3(CCN4C)C2O6)OC1=O (stereo partly specified) | 500 | 30 | 16.7 | –
10 | CC1=CC2(CCC3(O)C4Cc5ccc(O)c6c5[C@@]3(CCN4C)C2O6)OC1=O (stereo partly specified) | > 1000 | 200 | > 5 | –
11 | C=C1CC2(CCC3(O)[C@H]4Cc5ccc(O)c6c5[C@@]3(CCN4C)C2O6)OC1=O (stereo in doubt; 6b) [listing 1 of 2 here] | – | – | 7 | –
12 | CCOC(=O)[C@@H]1OC12CCC1(O)C3Cc4ccc(O)c5c4[C@@]1(CCN3C)C2O5 (stereo partly specified) | 200 | 15 | 13.3 | –
13 | C=C1CC2(CCC3(O)[C@H]4Cc5ccc(O)c6c5[C@@]3(CCN4CC3CC3)C2O6)OC1=O (stereo in doubt; 6a) [listing 2 of 2 here] | – | – | 1.2 | –
14 | CN1CC[C@]23c4c5ccc(O)c4OC2C2(CCC3(O)C1C5)CO2 (stereo partly specified) | 60 | 8 | 7.5 | –
15 | Oc1ccc2c3c1OC1C4(CCC5(O)[C@@H](C2)N(CC2CC2)CC[C@]315)CO4 (stereo in doubt; 13a) [listing 1 of 2 here] | – | – | 0.6 | –
16 | CC1CC2(CCC3(O)[C@H]4Cc5ccc(O)c6c5[C@@]3(CCN4CC3CC3)C2O6)OC1=O (stereo partly specified) | 6 | 10 | 0.6 | –
17 | O=C1C=CC2(CCC3(O)[C@H]4Cc5ccc(O)c6c5[C@@]3(CCN4CC3CC3)C2O6)O1 (stereo partly specified) | 10 | 10 | 1 | –
18 | Oc1ccc2c3c1OC1C4(CCC5(O)[C@@H](C2)N(CC2CC2)CC[C@]315)CO4 (stereo in doubt; 13a) [listing 2 of 2 here] | 3.4 | 5.1 | – | –
19 | CCOC(=O)[C@@H]1OC12CCC1(O)[C@H]3Cc4ccc(O)c5c4[C@@]1(CCN3CC1CC1)C2O5 (stereo partly specified) | – | 6 | 1 | –
20 | C=C1CC2(CCC3(O)[C@H]4Cc5ccc(O)c6c5[C@@]3(CCN4C)C2O6)OC1=O (stereo in doubt; 5b) [listing 1 of 2 here] | 250 | 35 | – | –
21 | CC1=CC2(CCC3(O)[C@H]4Cc5ccc(O)c6c5[C@@]3(CCN4CC3CC3)C2O6)OC1=O (stereo partly specified) | 70 | 40 | 1.8 | –
22 | C=C1CC2(CCC3(O)[C@H]4Cc5ccc(O)c6c5[C@@]3(CCN4C)C2O6)OC1=O (stereo in doubt; 5b) [listing 2 of 2 here] | – | – | 7 | Control [4]: 63%; Control [5]: 66%; Control [6]: 56%; Control [7]: 79%; Control [8]: 97%; Control [9]: 43%; Control [10]: 34%; Control [11]: 35%
23 | C=C1CC2(CCC3(O)[C@H]4Cc5ccc(O)c6c5[C@@]3(CCN4CC3CC3)C2O6)OC1=O (stereo in doubt; 5a) [listing 2 of 2 here] | – | – | 0.4 | –
24 | C=C1CC2(CCC3(O)[C@H]4Cc5ccc(O)c6c5[C@@]3(CCN4C)C2O6)OC1=O (stereo in doubt; 6b) [listing 2 of 2 here] | 880 | 125 | – | –

— ChEMBL document CHEMBL1123075, “Opioid agonists and antagonists. 6-Desoxy-6-substituted lactone, epoxide, and glycidate ester derivatives of naltrexone and oxymorphone” (J Med Chem, 1985)
